# Data from US8859569B2, “Substituted annellated pyrimidines and use thereof” (Bayer Pharma Aktiengesellschaft, priority 2011, dated 2014).
# Assays:
# [1] = biological target: T1, human phosphodiesterase 5 (PDE-5) (Homo sapiens, UniProt O76074); test: Inhibition of human phosphodiesterase 5 (PDE-5), SPA assay; format: biochemical; conditions: PDE-5 preparation from human platelets, [8-3H]cGMP substrate
# T1 construct: PDE-5 preparations are obtained from human platelets by lysis; from tissue; host or cells: human platelets
# Method in brief: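 Scintillation proximity read-out with yttrium beads after 60 min room-temperature hydrolysis of 0.025 μCi [8-3H]cGMP, pH 7.5 Tris/MgCl2/EDTA buffer. Enzyme is a human platelet PDE-5 fraction, diluted to keep substrate turnover below 70%. Test concentrations 4 μM–0.0018 μM final; IC50 from inhibition curves.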
# aorta rings = test: Vessel-relaxing action in vitro (aorta rings, phenylephrine contraction); conditions: concentration required to reduce phenylephrine-induced contraction of rabbit aorta rings by 50%
# Protocol: B-1. Vessel-relaxing Action in vitro
# Rabbits are stunned with a blow on the back of the neck and exsanguinated. The aorta is removed, freed from adhering tissue, separated into rings with a width of 1.5 mm, and placed individually, with preloading, in 5-ml organ baths with carbogen-gassed Krebs-Henseleit solution at 37° C. with the following composition (mM in each case): sodium chloride: 119; potassium chloride: 4.8; calcium chloride dihydrate: 1; magnesium sulphate heptahydrate: 1.4; potassium dihydrogen phosphate: 1.2; sodium hydrogen carbonate: 25; glucose: 10. The contraction force is recorded with Statham UC2 cells, amplified and digitized via an A/D converter (DAS-1802 HC, Keithley Instruments Munich) and recorded in parallel on a continuous-line recorder. To produce contraction, phenylephrine is added to the bath cumulatively in increasing concentration. After several control cycles, the test substance is added in increasing dosage in each subsequent pass and the level of contraction is compared with the level of contraction reached in the immediately preceding pass. This is used for calculating the concentration that is required to reduce the level of the control value by 50% (IC50 value). The standard application volume is 5 μl, and the proportion of DMSO in the bath solution corresponds to 0.1%.
# [2] = biological target: T2, recombinant guanylate cyclase reporter cell line (Rattus norvegicus, UniProt P19686+P20595); test: Action on recombinant guanylate cyclase reporter cell line; format: cell-based
# T2 construct: expressed in transfected cells
# T2 sequence (P20595 1-619): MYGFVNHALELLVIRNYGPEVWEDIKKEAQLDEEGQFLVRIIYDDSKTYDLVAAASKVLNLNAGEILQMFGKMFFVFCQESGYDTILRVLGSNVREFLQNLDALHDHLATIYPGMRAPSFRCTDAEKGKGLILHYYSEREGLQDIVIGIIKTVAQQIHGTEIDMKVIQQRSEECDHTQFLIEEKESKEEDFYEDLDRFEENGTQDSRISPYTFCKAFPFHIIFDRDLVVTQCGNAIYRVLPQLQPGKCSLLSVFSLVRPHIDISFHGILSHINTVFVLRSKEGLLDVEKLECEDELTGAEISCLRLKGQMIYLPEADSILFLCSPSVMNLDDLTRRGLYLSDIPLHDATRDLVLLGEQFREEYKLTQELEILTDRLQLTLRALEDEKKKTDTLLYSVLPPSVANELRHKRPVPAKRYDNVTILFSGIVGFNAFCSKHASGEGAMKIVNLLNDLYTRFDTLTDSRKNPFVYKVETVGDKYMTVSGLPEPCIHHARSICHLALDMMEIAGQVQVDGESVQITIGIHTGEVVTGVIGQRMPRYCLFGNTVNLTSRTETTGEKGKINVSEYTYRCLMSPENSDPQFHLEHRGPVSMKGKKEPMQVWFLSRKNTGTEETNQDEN
# T2 sequence (P19686 1-690): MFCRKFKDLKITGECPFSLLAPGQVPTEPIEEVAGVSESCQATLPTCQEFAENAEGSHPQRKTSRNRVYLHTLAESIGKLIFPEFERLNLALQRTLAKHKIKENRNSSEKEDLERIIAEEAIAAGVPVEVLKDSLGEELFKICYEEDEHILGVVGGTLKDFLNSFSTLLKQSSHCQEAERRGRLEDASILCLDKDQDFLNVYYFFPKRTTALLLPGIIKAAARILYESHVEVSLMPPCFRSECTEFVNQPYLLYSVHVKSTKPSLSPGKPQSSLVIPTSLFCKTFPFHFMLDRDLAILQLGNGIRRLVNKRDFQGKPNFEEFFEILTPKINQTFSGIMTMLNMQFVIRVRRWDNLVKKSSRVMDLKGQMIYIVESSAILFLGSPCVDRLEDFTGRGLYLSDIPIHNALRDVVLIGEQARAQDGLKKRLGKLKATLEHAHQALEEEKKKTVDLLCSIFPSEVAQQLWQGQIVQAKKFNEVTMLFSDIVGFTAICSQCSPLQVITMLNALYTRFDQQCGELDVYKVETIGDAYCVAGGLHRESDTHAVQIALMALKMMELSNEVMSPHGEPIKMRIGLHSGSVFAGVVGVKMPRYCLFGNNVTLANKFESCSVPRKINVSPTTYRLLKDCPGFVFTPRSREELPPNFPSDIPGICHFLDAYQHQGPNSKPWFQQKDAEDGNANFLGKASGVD
# Protocol: B-2. Action on Recombinant Guanylate Cyclase Reporter Cell Line
# The cellular action of the compounds according to the invention is determined on a recombinant guanylate cyclase reporter cell line, as described in F. Wunder et al., Anal. Biochem. 339, 104-112 (2005).
IC50 [1] [nM],IC50 (aorta rings; Oryctolagus cuniculus) [nM],MEC (minimal effective concentration) [2] [μm],IC50 (aorta rings) [nM],Compound
110,> 10000,0.3,,"CC1(C)C(=O)Nc2nc(-n3nc(Cc4ccccc4F)c4ccccc43)nc(NCCC(F)(F)F)c21 [Example 35, 2-[3-(2-Fluorobenzyl)-1H-indazol-1-yl]-5,5-dimethyl-4-[(3,3,3-trifluoropropyl)amino]-5,7-dihydro-6H-pyrrolo[2,3-d]pyrimidin-6-one]"
440,10000,0.3,,"CC1(C)C(=O)Nc2nc(-c3nn(Cc4ccccc4F)c4ncc(F)cc34)nc(NCC3CC3(C)C)c21 (centres unmarked) [Example 99, 4-{[(2,2-Dimethylcyclopropyl)methyl]amino}-2-[5-fluoro-1-(2-fluorobenzyl)-1H-pyrazolo[3,4-b]pyridin-3-yl]-5,5-dimethyl-5,7-dihydro-6H-pyrrolo[2,3-d]pyrimidin-6-one]"
52,552,0.3,,"CC1(C)C(=O)Nc2nc(-c3nn(Cc4ccccc4F)c4ncc(F)cc34)nc(NCC3CC3)c21 [Example 10, 4-[(Cyclopropylmethyl)amino]-2-[5-fluoro-1-(2-fluorobenzyl)-1H-pyrazolo[3,4-b]pyridin-3-yl]-5,5-dimethyl-5,7-dihydro-6H-pyrrolo[2,3-d]pyrimidin-6-one]"
430,453,1.0,,"CC1(C)C(=O)Nc2nc(-c3nn(Cc4ncccc4F)c4ncc(F)cc34)nc(N3CC(F)C3)c21 [Example 15, 4-(3-Fluoroazetidin-1-yl)-2-{5-fluoro-1-[(3-fluoropyridin-2-yl)methyl]-1H-pyrazolo[3,4-b]pyridin-3-yl}-5,5-dimethyl-5,7-dihydro-6H-pyrrolo[2,3-d]pyrimidin-6-one]"
140,114,0.1,,"COc1nc(-c2nn(Cc3ccccc3F)c3ncccc23)nc2c1C(C)(C)C(=O)N2 [Example 1, 2-[1-(2-Fluorobenzyl)-1H-pyrazolo[3,4-b]pyridin-3-yl]-4-methoxy-5,5-dimethyl-5,7-dihydro-6H-pyrrolo[2,3-d]pyrimidin-6-one]"
2800,4760,0.3,,"O=C1Nc2nc(-c3nn(Cc4ccccc4F)c4ncc(F)cc34)nc(NCCC(F)(F)F)c2C12CCOC2 (centres unmarked) [Example 100, 2′-[5-Fluoro-1-(2-fluorobenzyl)-1H-pyrazolo[3,4-b]pyridin-3-yl]-4′-[(3,3,3-trifluoropropyl)amino]-4,5-dihydrospiro[furan-3,5′-pyrrolo[2,3-d]pyrimidin]-6′(7′H)-one]"
400,551,1,,"CC1(C)C(=O)Nc2nc(-c3nn(Cc4ccccc4F)c4ncc(F)cc34)nc(N3CCC(F)(F)CC3)c21 [Example 103, 4-(4,4-Difluoropiperidin-1-yl)-2-[5-fluoro-1-(2-fluorobenzyl)-1H-pyrazolo[3,4-b]pyridin-3-yl]-5,5-dimethyl-5,7-dihydro-6H-pyrrolo[2,3-d]pyrimidin-6-one]"
900,1870,0.3,,"CC1(C)C(=O)Nc2nc(-c3nn(Cc4ccccc4F)c4c3CCC4)nc(NCCC(F)(F)F)c21 [Example 20, 2-[1-(2-Fluorobenzyl)-1,4,5,6-tetrahydrocyclopenta[c]pyrazol-3-yl]-5,5-dimethyl-4-[(3,3,3-trifluoropropyl)amino]-5,7-dihydro-6H-pyrrolo[2,3-d]pyrimidin-6-one]"
26,,0.01,601,"CC1(C)C(=O)Nc2nc(-c3nn(Cc4ccccc4F)c4ncc(F)cc34)nc(NCC(O)C(F)(F)F)c21 (single isomer, unassigned) [Example 96-2, 2-[5-Fluoro-1-(2-fluorobenzyl)-1H-pyrazolo[3,4-b]pyridin-3-yl]-5,5-dimethyl-4-[(3,3,3-trifluoro-2-hydroxypropyl)amino]-5,7-dihydro-6H-pyrrolo[2,3-d]pyrimidin-6-one]"
140,277,0.1,,"CC(=O)NC1CCN(c2nc(-c3nn(Cc4ccccc4F)c4ncccc34)nc3c2C(C)(C)C(=O)N3)C1 (centres unmarked) [Example 94, N-(1-{2-[1-(2-Fluorobenzyl)-1H-pyrazolo[3,4-b]pyridin-3-yl]-5,5-dimethyl-6-oxo-6,7-dihydro-5H-pyrrolo[2,3-d]pyrimidin-4-yl}pyrrolidin-3-yl)acetamide]"
570,696,0.3,,"CC1(C)C(=O)Nc2nc(-c3nn(Cc4ccccc4F)c4ncccc34)nc(N3CCC(C(F)(F)F)C3)c21 (centres unmarked) [Example 33, 2-[1-(2-Fluorobenzyl)-1H-pyrazolo[3,4-b]pyridin-3-yl]-5,5-dimethyl-4-[3-(trifluoromethyl)pyrrolidin-1-yl]-5,7-dihydro-6H-pyrrolo[2,3-d]pyrimidin-6-one]"
120,680,,,"CC1(C)C(=O)Nc2nc(-c3nn(Cc4ccccc4F)c4ncc(F)cc34)nc(NCC(N)C(F)(F)F)c21 (centres unmarked) [Example 6, 4-[(2-Amino-3,3,3-trifluoropropyl)amino]-2-[5-fluoro-1-(2-fluorobenzyl)-1H-pyrazolo[3,4-b]pyridin-3-yl]-5,5-dimethyl-5,7-dihydro-6H-pyrrolo[2,3-d]pyrimidin-6-one]"
840,10000,,,"CC1(C)C(=O)Nc2nc(-c3nn(Cc4cccc(F)c4F)c4ncc(F)cc34)nc(OCCC(F)(F)F)c21 [Example 110, 2-[1-(2,3-Difluorobenzyl)-5-fluoro-1H-pyrazolo[3,4-b]pyridin-3-yl]-5,5-dimethyl-4-(3,3,3-trifluoropropoxy)-5,7-dihydro-6H-pyrrolo[2,3-d]pyrimidin-6-one]"
46,,0.3,,"CC1(C)C(=O)Nc2nc(-c3nn(Cc4ccccc4F)c4ncccc34)nc(Nc3ccncc3)c21 [Example 69, 2-[1-(2-fluorobenzyl)-1H-pyrazolo[3,4-b]pyridin-3-yl]-5,5-dimethyl-4-(pyridin-4-ylamino)-5,7-dihydro-6H-pyrrolo[2,3-d]pyrimidin-6-one]"
330,,0.01,,"CC1(C)C(=O)Nc2nc(-c3nn(Cc4ccccc4F)c4ncccc34)nc(NC[C@H]3CCCO3)c21 [Example 86, 2-[1-(2-fluorobenzyl)-1H-pyrazolo[3,4-b]pyridin-3-yl]-5,5-dimethyl-4-[(tetrahydrofuran-2-ylmethyl)amino]-5,7-dihydro-6H-pyrrolo[2,3-d]pyrimidin-6-one]"
